Laboratory results as given in patent US4749710A, “Immunosuppressive agents” (priority 1985, dated 1988).
Read-outs that look alike come from different tables or passages of the source.

What was measured:
Format in all cases: cell-based
[1] = system: murine cytotoxic T-lymphocyte responses; test: cells; conditions: for CTL activity (% specific ^51 Cr release): 90:1 effector to target
Text: Immunosuppressive Activity of Vitamin D compounds on cytotoxic T lymphocyte Responses-General Test Description
Cytotoxic thymus-derived lymphocytes (CTL) constitute an important aspect of immune function and, as a result, play a key role in the rejection of grafted cells, tissues and organs. It is, therefore, essential to suppress CTL generation in a clinical situation in which CTL function is antithetical to the desired outcome as, for example, in transplantation. Cytotoxic T-lymphocytes have been studied for several years by many investigators and methods to evaluate CTL responses in vitro are well established.
As described below, CTL responses as affected by Vitamin D derivatives, were studied in vitro using cells from lab animals and human volunteers. Cytotoxic T-lymphocytes were generated from responder lymphoid cells in tissue culture medium during an incubation period of 6 days by exposure to foreign stimulator cells, i.e. from a genetically disparate source. A portion of the resultant effector cells were CTL capable of killing fresh cells related to the stimulator cells employed in the 6 day culture. To detect killing of cells by CTL, fresh target cells were incubated in excess ^51 chromium (as sodium chromate) until they were extensively labelled. Since target cells will retain the internalized radioisotope as long as they are viable but release the label when they are killed, CTL activity was assessed by quantitating the chromium released from target cells after a 4 or 18 hour incubation with CTL. Immunosuppression produced by Vitamin D derivatives was gauged as the ability to inhibit CTL responses during the initial incubation period relative to control cultures to which no Vitamin D derivative was added.
Female BALB/c By and C57BL/6 mice were obtained from Jackson Laboratories and were used between 8 and 10 weeks of age. Mice were given food and water ad libitum and were kept in a 12 hour light and 12 hour dark cycle.
For murine cultures, minimal essential medium with Hank's salts was supplemented to 1 millimolar with sodium pyruvate, to 0.1 millimolar with nonessential amino acids, to 2 millimolar with 1-glutamine, to 10% (v/v) with heat-inactivated fetal bovine serum, to 50 micrograms per ml with gentamicin, and to 1000 milligrams per liter with sodium bicarbonate and was used as tissue culture medium.
Stock solutions of Vitamin D derivatives were made in argon-saturated ethanol at a final concentration of 1×10^-2 molar, were covered with argon before sealing and were stored at -20° C. in the dark. Reduced lighting conditions were always employed when working with compounds. Compounds were diluted in tissue culture medium to 1×10^-4 molar and all subsequent dilutions were done in tissue culture medium containing 1% v/v ethanol. The final dilution into culture vessels was 1:10 thus keeping the vehicle concentration constant at 0.1% while varying the concentration of compound as tabulated in the results. For purposes of control, mixed leukocyte cultures were incubated in medium only (medium control) or in medium containing a final concentration of 0.1% ethanol (vehicle control).
Murine cytotoxic T-lymphocytes were generated in mixed leukocyte cultures by known methods. Specifically, single cell suspensions were prepared from spleens by gentle disruption in balanced salt solution (Hanks' balanced salt solution supplemented to 10%, v/v, with fetal bovine serum). After sedimentation on ice to remove particulate debris, cell suspensions were centrifuged at 400xg and were resuspended in fresh balanced salt solution. Cells to be used as stimulator cells were precluded from proliferating or generating cytotoxic T-lymphocytes by exposure to 1000 rads of gamma irradiation using a ^137 cesium source. […]

[2] = Viability / viable cell recovery of cultured murine cells (trypan blue dye exclusion); conditions: mouse, trypan blue exclusion
Protocol: (§1) Murine cytotoxic T-lymphocytes were generated in mixed leukocyte cultures by known methods. Specifically, single cell suspensions were prepared from spleens by gentle disruption in balanced salt solution (Hanks' balanced salt solution supplemented to 10%, v/v, with fetal bovine serum). After sedimentation on ice to remove particulate debris, cell suspensions were centrifuged at 400xg and were resuspended in fresh balanced salt solution. Cells to be used as stimulator cells were precluded from proliferating or generating cytotoxic T-lymphocytes by exposure to 1000 rads of gamma irradiation using a ^137 cesium source. […] Unless otherwise indicated, mixed leukocyte cultures were incubated at 37° C. for 6 days in a humidified atmosphere of 5% CO2 in air. The murine cytotoxic T-lymphocyte assay was conducted as follows. […] Cell pellets were resuspended in tissue culture medium and viable cells were enumerated by microscopy after exposure to trypan blue. Percent viability was calculated according to the formula: [formula] During the mixed leukocyte culture phase of the murine tests, three each of medium control and vehicle control cultures were included; each being assayed separately for cell viability and CTL activity. Unless otherwise indicated, single cultures were used to test for the effect of a particular concentration of any Vitamin D derivative. Moreover, cell viability was generally assessed only from control cultures; the resultant mean values being used to prepare desired viable effector cell concentrations from all cultures. The results for control cultures are expressed as the mean from replicate mixed leukocyte cultures±standard deviation thus establishing the between-culture variability inherent to any particular experiment. That changes in CTL activity were compound-induced was evidenced by dose-dependent changes in CTL activity measured from single cultures which exceeded the variability of the test system. […] The data shown in Table II below address this point. […] | ^b The viability of cells from each culture was determined by trypan

cultured murine cells = test: as above; conditions: immunosuppressive concentrations
Protocol: as §1

With C=C1/C(=C\C=C2/CCC[C@]3(C)[C@@H]([C@H](C)/C=C/[C@H](C)C(C)(C)O)CC[C@@H]23)C[C@@H](O)C[C@@H]1O [1α,25-(OH)2 --D2, 1α,25-Dihydroxyergocalciferol] the “suppression of murine cytotoxic T-lymphocyte responses (in words)” value [1] was “suppress murine cytotoxic T-lymphocyte responses”, the inhibition at 10 µM ([1]; Mus musculus, T-lymphocyte, Table I, 1 × 10^-5 molar, vs vehicle control, read-out: Inhibition of CTL activity (%)) was 91% and the inhibition at 1 µM ([1]; Mus musculus, T-lymphocyte, Table I, 1 × 10^-6 molar, vs vehicle control, read-out: Inhibition of CTL activity (%)) was 63%. The inhibition at 0.1 µM ([1]; Mus musculus, T-lymphocyte, Table I, 1 × 10^-7 molar, vs vehicle control, read-out: Inhibition of CTL activity (%)) was 48%, the inhibition at 0.01 µM ([1]; Mus musculus, T-lymphocyte, Table I, 1 × 10^-8 molar, vs vehicle control, read-out: Inhibition of CTL activity (%)) was 40% and the inhibition at 0.001 µM ([1]; Mus musculus, T-lymphocyte, Table I, 1 × 10^-9 molar, vs vehicle control, read-out: Inhibition of CTL activity (%)) was 20%. It also gave an inhibition at 0.0001 µM ([1]; Mus musculus, T-lymphocyte, Table I, 1 × 10^-10 molar, vs vehicle control, read-out: Inhibition of CTL activity (%)) of 3%, an inhibition at 1 µM ([1]; Mus musculus, T-lymphocyte, Table II, 1 × 10^-6 molar, vs vehicle, read-out: Inhibition of CTL activity (%)) of 56% and an inhibition at 0.1 µM ([1]; Mus musculus, T-lymphocyte, Table II, 1 × 10^-7 molar, vs vehicle, read-out: Inhibition of CTL activity (%)) of 56%. The inhibition at 0.01 µM ([1]; Mus musculus, T-lymphocyte, Table II, 1 × 10^-8 molar, vs vehicle, read-out: Inhibition of CTL activity (%)) was 37%, the inhibition at 0.001 µM ([1]; Mus musculus, T-lymphocyte, Table II, 1 × 10^-9 molar, vs vehicle, read-out: Inhibition of CTL activity (%)) was 20% and the inhibition at 0.0001 µM ([1]; Mus musculus, T-lymphocyte, Table II, 1 × 10^-10 molar, vs vehicle, read-out: Inhibition of CTL activity (%)) was 20%. For the same compound, the “CTL activity (% specific ^51 Cr release)” value ([1]; Table I, 1 × 10^-5 molar) was 5 % specific ^51 Cr release, the “CTL activity (% specific ^51 Cr release)” value ([1]; Table I, 1 × 10^-6 molar) was 20 % specific ^51 Cr release and the “CTL activity (% specific ^51 Cr release)” value ([1]; Table I, 1 × 10^-7 molar) was 28 % specific ^51 Cr release. The “CTL activity (% specific ^51 Cr release)” value ([1]; Table I, 1 × 10^-8 molar) was 32 % specific ^51 Cr release, the “CTL activity (% specific ^51 Cr release)” value ([1]; Table I, 1 × 10^-9 molar) was 43 % specific ^51 Cr release and the “CTL activity (% specific ^51 Cr release)” value ([1]; Table I, 1 × 10^-10 molar) was 52 % specific ^51 Cr release. For the same compound, the “CTL activity (% specific ^51 Cr release)” value ([1]; Table II, 1 × 10^-6 molar) was 21 % specific ^51 Cr release, the “CTL activity (% specific ^51 Cr release)” value ([1]; Table II, 1 × 10^-7 molar) was 21 % specific ^51 Cr release and the “CTL activity (% specific ^51 Cr release)” value ([1]; Table II, 1 × 10^-8 molar) was 30 % specific ^51 Cr release. For the same compound, the “CTL activity (% specific ^51 Cr release)” value ([1]; Table II, 1 × 10^-9 molar) was 38 % specific ^51 Cr release, the “CTL activity (% specific ^51 Cr release)” value ([1]; Table II, 1 × 10^-10 molar) was 38 % specific ^51 Cr release and the viability at 0.0001 µM [2] was 57%. It also gave a viability at 0.001 µM [2] of 58%, a viability at 0.01 µM [2] of 57% and a viability at 0.1 µM [2] of 57%. For the same compound, the viability at 1 µM [2] was 57% and the “toxicity to cultured murine cells (in words)” value (cultured murine cells) was “not toxic to cultured murine cells”.
